IC50 data for 22 molecules are collected here from ChEMBL document CHEMBL5528008, “Design and synthesis of the first PARP-1 and proteasome dual inhibitors to treat breast cancer” (Eur J Med Chem, 2024).

pIC50: −log10 of the molar value. Bounds are passed on as bounds.

The target in assay [1] is Poly [ADP-ribose] polymerase 1 (Homo sapiens, UniProt P09874). The assay is described as follows: Inhibition of PARP-1 (unknown origin) using Femto-ECL as substrate preincubated for 2.7 hrs followed by substrate addition by chemiluminescence assay.
The next assay has as its target 20S proteasome. The assay is described as follows: Inhibition of 20S proteasome (unknown origin) using […] as substrate. Format: protein-complex assay, Homo sapiens.
The next assay concerns BT-549. The assay is described as follows: Cytotoxicity against human BT-549 cells assessed as inhibition of cell growth incubated for 72 hrs by MTT assay. Type of assay: functional, cell-based. To be noted: BT-549, 72 h. Background: Formazan colour is commonly taken as a measure of viable cells.
For a further assay, the system named is MCF7. Briefly: Cytotoxicity against human MCF7 cells assessed as inhibition of cell growth incubated for 72 hrs by MTT assay. Type of assay: functional, cell-based. The conditions noted are these: MCF7, 72 h.
The subject of the next assay is MDA-MB-231. Briefly: Cytotoxicity against human MDA-MB-231 cells assessed as inhibition of cell growth incubated for 72 hrs by MTT assay. To be noted: MDA-MB-231, 72 h. Format: functional, cell-based.

Poly [ADP-ribose] polymerase 1, sequence (P09874 whole entry): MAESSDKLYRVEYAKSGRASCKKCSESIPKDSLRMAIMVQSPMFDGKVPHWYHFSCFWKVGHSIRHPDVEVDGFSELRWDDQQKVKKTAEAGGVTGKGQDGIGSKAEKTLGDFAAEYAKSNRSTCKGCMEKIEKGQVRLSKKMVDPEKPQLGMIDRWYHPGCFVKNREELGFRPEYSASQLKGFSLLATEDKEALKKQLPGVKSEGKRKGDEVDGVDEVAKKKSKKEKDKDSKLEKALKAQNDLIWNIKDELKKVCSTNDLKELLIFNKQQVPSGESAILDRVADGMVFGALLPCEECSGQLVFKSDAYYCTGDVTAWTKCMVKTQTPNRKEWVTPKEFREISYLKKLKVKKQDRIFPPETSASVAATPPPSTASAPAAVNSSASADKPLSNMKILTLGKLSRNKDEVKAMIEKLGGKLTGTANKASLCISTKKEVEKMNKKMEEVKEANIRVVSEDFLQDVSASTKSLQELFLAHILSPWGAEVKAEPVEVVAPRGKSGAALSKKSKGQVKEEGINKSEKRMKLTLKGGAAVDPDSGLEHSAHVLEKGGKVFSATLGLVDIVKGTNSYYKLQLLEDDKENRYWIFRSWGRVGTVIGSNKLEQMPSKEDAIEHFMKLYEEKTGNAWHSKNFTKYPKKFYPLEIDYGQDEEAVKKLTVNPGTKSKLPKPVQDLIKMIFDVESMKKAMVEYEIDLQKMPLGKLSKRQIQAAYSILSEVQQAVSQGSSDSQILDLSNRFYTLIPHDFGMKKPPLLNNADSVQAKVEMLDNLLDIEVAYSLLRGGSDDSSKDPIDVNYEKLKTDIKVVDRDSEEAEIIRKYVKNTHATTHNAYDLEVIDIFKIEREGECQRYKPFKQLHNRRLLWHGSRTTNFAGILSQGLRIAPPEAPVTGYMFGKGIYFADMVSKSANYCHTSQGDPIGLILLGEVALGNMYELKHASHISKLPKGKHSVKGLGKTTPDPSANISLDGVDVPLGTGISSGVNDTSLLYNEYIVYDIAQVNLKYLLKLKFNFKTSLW

As a reminder, the pIC50 is the negative decadic logarithm of the IC50, by convention in mol/L. For the molecule `COC[C@H](NC(=O)c1cc(Cc2n[nH]c(=O)c3ccccc23)ccc1F)C(=O)N[C@@H](CC(C)C)B1O[C@@H]2C[C@@H]3C[C@@H](C3(C)C)[C@]2(C)O1`, the negative logarithm of the IC50 (pIC50) in assay [1] is 6.61; against 20S proteasome it was 7.67; in the assay with BT-549 it was 6.96; in the assay with MCF7 it was 7.39; in the assay on MDA-MB-231, 7.00.
Molecule `COC[C@H](NC(=O)c1cc(Cc2n[nH]c(=O)c(C)c2C)ccc1F)C(=O)N[C@@H](CC(C)C)B1O[C@@H]2C[C@@H]3C[C@@H](C3(C)C)[C@]2(C)O1` gave a pIC50 in assay [1] of less than 6.00.
With `CC(C)C[C@H](NC(=O)[C@H](CCc1ccccc1)NC(=O)c1cc(Cc2n[nH]c(=O)c3ccccc23)ccc1F)B1O[C@@H]2C[C@@H]3C[C@@H](C3(C)C)[C@]2(C)O1`, the pIC50 in assay [1] was 7.00; against 20S proteasome it was 7.46; in the assay with BT-549, 6.53; with MCF7 it was 7.84; in the assay with MDA-MB-231 it was 7.53.
`CC(C)C[C@H](NC(=O)CNC(=O)c1cc(Cc2n[nH]c(=O)c3ccccc23)ccc1F)B(O)O`: the pIC50 is 8.39 in assay [1] and 6.41 against 20S proteasome.
Regarding `CC(C)C[C@H](NC(=O)CNC(=O)c1cc(Cc2n[nH]c(=O)c3ccccc23)ccc1F)B1O[C@@H]2C[C@@H]3C[C@@H](C3(C)C)[C@]2(C)O1`, the pIC50 was 8.68 in assay [1]; 6.80 at 20S proteasome; 7.01 in the assay on BT-549; 6.45 with MCF7; 6.60 in the assay on MDA-MB-231.
Take `CC(C)C[C@H](NC(=O)[C@H](Cc1ccccc1)NC(=O)c1cc(Cc2n[nH]c(=O)c3ccccc23)ccc1F)B(O)O`: the negative-log IC50 (pIC50) was 6.54 in assay [1] and 7.06 against 20S proteasome.
`CC(C)C[C@H](NC(=O)[C@H](Cc1c[nH]c2ccccc12)NC(=O)c1cc(Cc2n[nH]c(=O)c3ccccc23)ccc1F)C(=O)[C@@]1(C)CO1`: at 20S proteasome, the pIC50 is 5.97.
Turning to `Cc1c(Cc2ccc(F)c(C(=O)NCC(=O)N[C@@H](CC(C)C)B3O[C@@H]4C[C@@H]5C[C@@H](C5(C)C)[C@]4(C)O3)c2)n[nH]c(=O)c1C`, the pIC50 in assay [1] was 6.76; against 20S proteasome, 7.40.
With `CC(C)C[C@H](NC(=O)[C@@H](NC(=O)c1cc(Cc2n[nH]c(=O)c3ccccc23)ccc1F)[C@H](C)O)B1O[C@@H]2C[C@@H]3C[C@@H](C3(C)C)[C@]2(C)O1`, the negative-log IC50 (pIC50) in assay [1] is 6.56; against 20S proteasome, 7.86; in the assay with BT-549, 6.75; in the assay with MCF7, 6.31; with MDA-MB-231, 6.75.
Take `CCC[C@H](NC(=O)c1cc(Cc2n[nH]c(=O)c3ccccc23)ccc1F)C(=O)N[C@@H](CC(C)C)B1O[C@@H]2C[C@@H]3C[C@@H](C3(C)C)[C@]2(C)O1`: the pIC50 in assay [1] is 6.69; against 20S proteasome, 6.99; in the assay with BT-549, 6.22; in the assay with MCF7, 7.06; with MDA-MB-231, 6.47.
Turning to `CC(C)C[C@H](NC(=O)[C@@H](NC(=O)c1cc(Cc2n[nH]c(=O)c3ccccc23)ccc1F)C(C)(C)C)B1O[C@@H]2C[C@@H]3C[C@@H](C3(C)C)[C@]2(C)O1`, the pIC50 in assay [1] is 6.77; on 20S proteasome, 7.18; in the assay with BT-549 it was 7.91; in the assay on MCF7, 6.89; in the assay on MDA-MB-231, 7.55.
Turning to `CC(C)C[C@H](NC(=O)[C@H](Cc1ccc(O)cc1)NC(=O)c1cc(Cc2n[nH]c(=O)c3ccccc23)ccc1F)B1O[C@@H]2C[C@@H]3C[C@@H](C3(C)C)[C@]2(C)O1`, the pIC50 in assay [1] is 6.94; on 20S proteasome, 7.32; with BT-549 it was 6.46; with MCF7 it was 6.01; with MDA-MB-231, 6.48.
Taken in the same sequence, the figures for `CC(C)C[C@H](NC(=O)[C@H](Cc1ccccc1)NC(=O)c1cc(Cc2n[nH]c(=O)c3ccccc23)ccc1F)B1O[C@@H]2C[C@@H]3C[C@@H](C3(C)C)[C@]2(C)O1` were 7.01, 7.61, 7.07, 7.23 and 7.20.
Take `CC(C)C[C@H](NC(=O)[C@@H](NC(=O)c1cc(Cc2n[nH]c(=O)c3ccccc23)ccc1F)C(C)C)B1O[C@@H]2C[C@@H]3C[C@@H](C3(C)C)[C@]2(C)O1`: the negative logarithm of the IC50 (pIC50) was 6.82 in assay [1]; 7.01 at 20S proteasome; 7.88 with BT-549; 6.76 in the assay with MCF7; 7.68 in the assay on MDA-MB-231.
In the case of `CC(C)C[C@H](NC(=O)[C@H](C)NC(=O)c1cc(Cc2n[nH]c(=O)c3ccccc23)ccc1F)B1O[C@@H]2C[C@@H]3C[C@@H](C3(C)C)[C@]2(C)O1`, the negative logarithm of the IC50 (pIC50) in assay [1] is 6.93; against 20S proteasome, 6.88; in the assay on BT-549, 7.39; with MCF7, 7.68; in the assay on MDA-MB-231, 7.43.
Consider `CC(C)C[C@H](NC(=O)CNC(=O)c1cc(Cc2n[nH]c(=O)c3ccccc23)ccc1F)C(=O)[C@@]1(C)CO1`, for which, on 20S proteasome, the negative-log IC50 (pIC50) was less than 5.00.
For `CC(C)C[C@H](NC(=O)[C@H](Cc1c[nH]c2ccccc12)NC(=O)c1cc(Cc2n[nH]c(=O)c3ccccc23)ccc1F)B1O[C@@H]2C[C@@H]3C[C@@H](C3(C)C)[C@]2(C)O1`, the pIC50 in assay [1] was 7.55; against 20S proteasome it was 7.37; in the assay with BT-549, 6.67; with MCF7 it was 7.35; in the assay with MDA-MB-231, 6.53.
Take `CC(C)C[C@H](NC(=O)[C@H](Cc1ccccc1)NC(=O)c1cc(Cc2n[nH]c(=O)c3ccccc23)ccc1F)C(=O)[C@@]1(C)CO1`: the negative logarithm of the IC50 (pIC50) against 20S proteasome was 5.85.
With `Cc1c(Cc2ccc(F)c(C(=O)N[C@@H](Cc3ccccc3)C(=O)N[C@@H](CC(C)C)B3O[C@@H]4C[C@@H]5C[C@@H](C5(C)C)[C@]4(C)O3)c2)n[nH]c(=O)c1C`, in assay [1], the pIC50 was less than 6.00.
Take `CC(C)C[C@H](NC(=O)CNC(=O)c1cc(Cc2ccc(=O)[nH]n2)ccc1F)B1O[C@@H]2C[C@@H]3C[C@@H](C3(C)C)[C@]2(C)O1`: the negative logarithm of the IC50 (pIC50) in assay [1] is less than 6.00; at 20S proteasome, 5.67.
For `CC(C)C[C@H](NC(=O)[C@H](Cc1c[nH]c2ccccc12)NC(=O)c1cc(Cc2n[nH]c(=O)c3ccccc23)ccc1F)B(O)O`, the figures for the pIC50 (in assay [1]; against 20S proteasome) were 7.01 and 7.25, respectively.
On to `CC(C)C[C@H](NC(=O)[C@H](Cc1ccccc1)NC(=O)c1cc(COc2ccccc2C(N)=O)ccc1F)B1O[C@@H]2C[C@@H]3C[C@@H](C3(C)C)[C@]2(C)O1`, for which the pIC50 in assay [1] is less than 6.00.
